Assay results: ChEMBL document CHEMBL6092176, “Discovery of pyrazolo[1,5-a]pyrimidine derivatives targeting TLR4-TLR4∗ homodimerization via AI-powered next-generation screening” (Eur J Med Chem, 2024)
“And” between values parts separate entries of the source, which are not always exact repeats. Equal values may be shown once. The source made the active and inactive calls. No cut-off for these calls is given here.

Columns and labels:
[1] = Half-life in C57BL/6 mouse at 10 mg/kg, ip measured upto 24 hrs; format: ADME, organism-based; conditions: in vivo
[2] = Tmax in C57BL/6 mouse at 10 mg/kg, ip measured upto 24 hrs; format: ADME, organism-based; conditions: in vivo
[3] = Cmax in C57BL/6 mouse at 10 mg/kg, ip measured upto 24 hrs; format: ADME, organism-based; conditions: in vivo
[4] = AUC(0 to t) in C57BL/6 mouse at 10 mg/kg, ip measured upto 24 hrs; format: ADME, organism-based; conditions: in vivo
[5] = MRT(0 to t) in C57BL/6 mouse at 10 mg/kg, ip measured upto 24 hrs; format: ADME, organism-based; conditions: in vivo
[6] = Apparent volume of distribution in C57BL/6 mouse at 10 mg/kg, ip measured upto 24 hrs; format: ADME, organism-based; conditions: in vivo
[7] = Clearance in C57BL/6 mouse at 10 mg/kg, ip measured upto 24 hrs; format: ADME, organism-based; conditions: in vivo
[8] = tested on: Mus musculus; assay: Antiinflammatory activity in LPS-induced C57BL/6 mouse sepsis model assessed as survival rate at 10 mg/kg, ip preadministered with compound for 1 hr followed by LPS stimulation and measured after 24 hrs; format: functional; conditions: time 25 hrs
[9] = target: T1, Toll-like receptor 4 (Homo sapiens, UniProt O00206); assay: Inhibition of human TLR4 in LPS-stimulated HEK-Blue hTLR4 cells assessed as reduction in SEAP activity incubated for 24 hrs by microplate reader assay; format: cell-based
[10] = Cytotoxicity against HEK-Blue hTLR4 cells incubated for 24 hrs by CCK8 assay; format: toxicity, cell-based; conditions: human
[11] = Inhibition of TLR4 to MD2 (unknown origin) protein-protein interaction; parameters: species or system Homo sapiens
[12] = target: T1, Toll-like receptor 4; assay: Inhibition of TLR4 (unknown origin) homodimerization
[13] = tested on: Mus musculus; assay: Antiinflammatory activity in LPS-induced C57BL/6 mouse sepsis model assessed as reduction in TNFalpha mRNA expression at 5 mg/kg, ip preadministered with compound for 1 hr followed by LPS stimulation and measured after 15 hrs by RT-qPCR analysis; format: functional, organism-based; conditions: time 16.0 hrs

T1 sequence (O00206 whole entry): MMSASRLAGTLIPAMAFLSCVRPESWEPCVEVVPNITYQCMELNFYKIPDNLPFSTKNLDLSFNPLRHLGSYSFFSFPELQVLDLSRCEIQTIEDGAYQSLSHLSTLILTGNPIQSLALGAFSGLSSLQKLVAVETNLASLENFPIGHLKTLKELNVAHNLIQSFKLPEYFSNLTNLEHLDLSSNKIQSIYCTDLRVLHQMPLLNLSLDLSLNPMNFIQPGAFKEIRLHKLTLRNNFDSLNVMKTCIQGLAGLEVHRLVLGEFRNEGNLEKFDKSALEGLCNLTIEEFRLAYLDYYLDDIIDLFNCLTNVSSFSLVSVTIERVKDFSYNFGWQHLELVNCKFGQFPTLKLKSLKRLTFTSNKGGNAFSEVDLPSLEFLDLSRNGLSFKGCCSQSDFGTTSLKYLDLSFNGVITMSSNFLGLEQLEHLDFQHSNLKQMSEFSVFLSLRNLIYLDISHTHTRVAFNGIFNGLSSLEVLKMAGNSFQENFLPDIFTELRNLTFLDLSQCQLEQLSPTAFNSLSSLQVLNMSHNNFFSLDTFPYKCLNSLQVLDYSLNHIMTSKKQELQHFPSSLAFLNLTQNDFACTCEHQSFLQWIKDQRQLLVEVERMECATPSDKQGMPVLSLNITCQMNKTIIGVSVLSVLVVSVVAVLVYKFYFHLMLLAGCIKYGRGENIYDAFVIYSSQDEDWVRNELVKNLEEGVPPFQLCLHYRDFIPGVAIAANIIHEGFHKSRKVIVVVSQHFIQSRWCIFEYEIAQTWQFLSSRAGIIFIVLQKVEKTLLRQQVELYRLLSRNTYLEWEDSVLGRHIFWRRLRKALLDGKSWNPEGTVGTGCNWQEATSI

Row | SMILES | IC50 [9] | IC50 at 24 h [10] [µM] | further results
1 | O=C(c1cnn2c(C(F)F)cc(-c3ccc(Cl)cc3)nc12)N1C[C@H]2CCCC[C@H]2C1 |  |  | t1/2 [1]: 2.74 h; Tmax [2]: 0.333 h; Cmax [3]: 760 ng/mL; AUCt [4]: 1560 ng·h/mL; MRT last at 24 h [5]: 2.55 h; Vz [6]: 25.4 L/kg; CL [7]: 107 mL/min/kg; survival at 10 mg/kg [8]: 60%
2 | NC1CCN(C(=O)c2cnn3c(C(F)F)cc(-c4ccc(Cl)cc4)nc23)CC1 | > 50 µM | > 50 | 
3 | FC(F)c1cc(-c2ccc(Cl)cc2)nc2cc(C(=S)N3C[C@H]4CCCC[C@H]4C3)nn12 | > 50 µM | > 50 | 
4 | FC(F)c1cc(-c2ccc(Cl)cc2)nc2c(C(=S)N3C[C@H]4CCCC[C@H]4C3)cnn12 | > 50 µM | > 50 | 
5 | O=C(c1cnn2c(C(F)F)cc(-c3ccc(Cl)cc3)nc12)N1CCC2(CC1)OCCO2 | 4.94 µM | > 50 | 
6 | CC(C)(C)OC(=O)NC1CCN(C(=O)c2cnn3c(C(F)F)cc(-c4ccc(Cl)cc4)nc23)CC1 | 24 µM | 45.9 | 
7 | Cc1nn(Cc2ccccc2Cl)c(C)c1CN(C)CC(O)COc1ccc(Cl)cc1 (stereo not drawn) |  |  | IC50 [11]: 18.7 µM
8 | Cc1ccc(-c2cc(C(F)F)n3ncc(C(=O)N4CCC5(CC4)OCCO5)c3n2)cc1 | 14 µM | > 50 | IC50 [12]: 14 µM
9 | O=C(c1cnn2c(C(F)F)cc(-c3ccc(F)cc3)nc12)N1CCC2(CC1)OCCO2 | > 50 µM | > 50 | 
10 | O=C(c1cnn2c(O)cc(-c3ccc(Cl)cc3)nc12)N1CCC2(CC1)OCCO2 | > 50 µM | > 50 | 
11 | CCOc1ccc(OCC(O)CN(C)Cc2c(C)nn(Cc3ccccc3Cl)c2C)cc1 (stereo not drawn) |  |  | IC50 [11]: 48.1 µM
12 | CC(=O)N1CCN(C(=O)c2cnn3c(C(F)F)cc(-c4ccc(Cl)cc4)nc23)CC1 | > 50 µM | > 50 | 
13 | CC(C)(C)OC(=O)N1CCN(C(=O)c2cnn3c(C(F)F)cc(-c4ccc(Cl)cc4)nc23)CC1 | > 50 µM | > 50 | 
14 | O=C(c1cnn2c(C(F)F)cc(-c3ccc(Br)cc3)nc12)N1CCC2(CC1)OCCO2 | > 50 µM | > 50 | 
15 | O=C(Oc1ccnc2c(Br)cccc12)c1cnn2c(C(F)F)cc(-c3ccc(Cl)cc3)nc12 | 15.5 µM | > 50 | 
16 | O=C(Nc1ccc(S(=O)(=O)NC2CC2)cc1)c1cnn2c(C(F)F)cc(-c3ccc(Cl)cc3)nc12 | 10.5 µM | > 50 | 
17 | O=C(c1cnn2c1NC(c1ccc(Cl)cc1)CC2C(F)F)N1C[C@H]2CCCC[C@H]2C1 (stereo partly drawn) | > 50 µM | > 50 | 
18 | COc1ccc(-c2cc(C(F)F)n3ncc(C(=O)N4CCC5(CC4)OCCO5)c3n2)cc1OC | > 50 µM | > 50 | 
19 | Cc1ccc(-c2cc(C(F)(F)F)n3ncc(C(=O)N4CCC5(CC4)OCCO5)c3n2)cc1 | > 50 µM | > 50 | 
20 | O=C(c1cnn2c(C(F)F)cc(C34CC5CC(CC(C5)C3)C4)nc12)N1C[C@H]2CCCC[C@H]2C1 | > 50 µM | > 50 | 
21 | CCOC(=O)C1=CCCC[C@H]1S(=O)(=O)Nc1ccc(F)cc1Cl [RESATORVID] | 0.047 µM and 0.06 µM | > 50 | 
22 | CN1CCN(C(=O)c2cnn3c(C(F)F)cc(-c4ccc(Cl)cc4)nc23)CC1 | 30.6 µM | > 50 | 
23 | O=C(c1cnn2c(C(F)F)cc(-c3ccc(Cl)cc3)nc12)N1CCSCC1 | > 50 µM | > 50 | 
24 | O=C(c1cnn2c(C(F)F)cc(-c3ccc(Cl)cn3)nc12)N1C[C@H]2CCCC[C@H]2C1 | 11.8 µM | > 50 | 
25 | O=C(c1cnn2c(C(F)(F)F)cc(-c3ccc(Cl)cc3)nc12)N1CCC2(CC1)OCCO2 | > 50 µM | > 50 | 
26 | O=C(c1cnn2c(C(F)F)cc(-c3ccc(Cl)cc3)nc12)N1CCC2(CCCCC2)CC1 | > 50 µM | > 50 | 
27 | C[C@@H]1C[C@H]2[C@@H]3CCC4=CC(=O)C=C[C@]4(C)[C@@]3(F)[C@@H](O)C[C@]2(C)[C@@]1(O)C(=O)CO |  |  | Activity [13]: inactive
